# Data taken from patent US8110703B2, “Retinoid derivative and pharmaceutical composition and use thereof” (Anhui Medical University, priority 2008, dated 2012).
# Marks after values point to notes of the source that are not given here.
# Key:
# [1] = system: A549 cells; test: Cell cycle and apoptosis by flow cytometry, A549; format: cell-based; settings: A549, 10 μg/ml, 3 days, PI flow cytometry
# Procedure: 1.4 Detection of Cell Cycle and Apoptosis by Flow Cytometry A549 cells in the logarithmic phase are collected, regulated with the concentrations thereof to 8×10^7/L, inoculated in a 6-hole board, cultured in an incubator (37° C. and 5% CO2). After the cells are adhered, the culture solution is discarded, and a culture solution having drugs with the corresponding concentrations is added and divided into 10 μg/ml drug groups, 10 μg/ml fenretinide groups, cell control groups, solvent control groups (1‰ DMSO and anhydrous ethanol) (11 in total). After 3 days, each group of cells is normally digested, collected, blown into single cell suspension, washed by cold PBS twice, and re-suspend by 10 μl PBS. Fixing and member breaking agents and a PI staining solution are added according to the Coulter DNA detection kit and reacted with one another at the room temperature and out of light for 30 min for machine detection. Each sample detects 10000 cells and repeats for three times, and the data are analyzed by Analysis software for the ratio during the G0-G1, S and G2-M periods and the ratio of apoptotic cells.
# [2] = system: HepG2 cells; test: AFP secretory volume of HepG2 cells; format: cell-based; settings: for effects on AFP secretory volume (statistics, in words): HepG2, compared with the control groups, P less than 0.05; for AFP: HepG2 cells, DMSO
# [3] = system: K562 cells; test: Cell cycle analysis by flow cytometer, K562; format: cell-based; parameters: S %: dose or concentration left out as unconfirmed; settings: 72 h
# Procedure: (§1) Retinoic acid derivatives and fenretinide are prepared as a storage solution of 10 mg/mL by anhydrous ethanol and stored at […] and kept out of light.
# (§2) NB4 cells and K562 cells are inoculated with an initial concentration of 2*10^5/ml in the RPMI1640 culture solution having 10% of calf serum (FBS), 100 u/ml of penicillin, 100 Lg/ml of streptomycin and 2 mmol/L of glutamine for suspension culture (37° C., 5% CO2). Change the solution every 2-3 days.
# (§3) For the cells above acted by the retinoic acid derivatives and fenretinide ([…]) for 72 h, about 10^6 of them are collected, washed by PBS twice, fixed by 70% of cold ethanol over 24 h, washed by PBS twice, added with 5 ug/ml of propidium iodide for staining and detected by a flow cytometer from which the data are analyzed and processed by the multi-cycle software.
# [4] = system: A549 lung cancer cells; test: MTT cell growth and proliferation experiment, A549; format: cell-based; parameters: key to Inhibition Rate: (control OD570 − test OD570)/control OD570, as fraction; settings: A549, MTT time gradient, 10 ug/ml; for Inhibition Rate: fraction
# Procedure: (§4) 1.1 Reagents 12 retinoic acid derivatives with the final concentrations of 1 ug/ml, 5 ug/ml and 10 ug/ml are synthesized by the Pharmaceutical College of Anhui Medical University using DMSO and anhydrous ethanol, separately packaged for storage at −20° C. and kept out of the light when used, and the final concentration of DMSO is less than 0.1%. MTT is purchased from Sigma Corp. The Coulter DNA detection kit is presented by the Central Lab of Anhui Provincial Hospital. AFP and γ-GT are provided by the Clinical Lab of No. 105 Hospital of PLA. Apoptosis-Hoechst staining kit is purchased from Beyotime Company.
# (§5) 1.2 Cell Culture A549, and HpeG2 cells are stored by our lab. Cell growth condition: DMEM (from GIBICO Company) culture solution is added with 10% of calf serum (purchased from the Hangzhou Sijiqing Biological Engineering Material Co., Ltd.) to culture in a cell culture incubator (37° C., 5% CO2) with saturated humidity.
# (§6) 1.3 Cell Growth and Proliferation Experiments MTT process is used. Cells in the logarithmic phase are picked and seeded on a 96-hole culture board with a cell concentration of 5×10^7/L. Each hole of the board is 200 ul. The next day after the adherence, the original solution is discarded, and the culture solution is added. The cells are divided into 1 ug/ml retinoic acid derivative groups, 5 ug/ml retinoic acid derivative groups, 10 ug/ml retinoic acid derivative groups, blank control groups, cell control groups, solvent control groups (1‰ DMSO and anhydrous ethanol) (17 in total) according to the concentrations thereof, incubated for 3d, added with MTT (5 g/L) of 20 ul/hole for incubation at 37° C. for 4 h. The original solution is carefully discarded and dried, and DMSO of 20 ul/hole is added to dissolve crystals, followed by vibrating for 10 min and determining the OD value at 570 nm. Each concentration is corresponding to 5 holes, and each group calculates the average of 3 experiments to calculate the inhibition rate to the cell growth according to the optical density (OD) average of each hole in each group and the following equation: inhibition rate %=(control hole OD570−experimental hole OD570)/control hole OD5700*100%. The process above is repeated for three times. The second experiment takes the maximum concentration (10 […]) for culture respectively for 1, 2, 3 and 7 days and repeat for three times.
# [5] = system: A549 cells; test: Differentiation index: CEA secretory volume of A549 cells; format: cell-based; settings: A549 culture supernatant, 10 ug/ml, 3 d, DMSO
# Procedure: 1.6 Detection of Differentiation Index The cultured A549 cells are randomly divided into 6 10 μg/ml drug groups, cell control groups, solvent control groups (DMSO and ethanol) and 10 μg/ml fenretinide control groups (11 in total). The control groups and drug groups are cultured for 3 days to collect respective 3 tubes of cell culture solutions which are centrifugated at a speed of 4000 r/min for 5 min to take the supernatant and detect the CEA content of the kit by using enzyme kinetics and CEA detection.
# [6] = system: liver cancer HepG2 cells; test: MTT cell growth and proliferation experiment, HepG2; format: cell-based; parameters: key to Inhibition Rate: (control OD570 − test OD570)/control OD570, as fraction; settings: for Inhibition Rate: fraction
# Procedure: as §4, §5, §6
# [7] = system: HepG2 cells; test: γ-GT specific activity of HepG2 cells; format: cell-based; settings: DMSO
# [8] = system: NB4 cells; test: Cell cycle analysis by flow cytometer, NB4; format: cell-based; parameters: S %: dose or concentration left out as unconfirmed; settings: 72 h
# Procedure: as §1, §2, §3
# [9] = system: HepG2 cells; test: Cell cycle and apoptosis by flow cytometry, HepG2; format: cell-based; settings: HepG2, flow cytometry
# [10] = system: human acute promyelocytic leukaemia; settings: cited from earlier work
# [11] = HepG2, MTT OD 570 nm, 1 ug/ml, 3 d, solvent not given
# [12] = HepG2, MTT OD 570 nm, 5 ug/ml, 3 d, solvent not given
# [13] = HepG2, MTT OD 570 nm, 10 ug/ml, 3 d, solvent not given
# [14] = HepG2, MTT time gradient, 10 ug/ml, 1 d
# [15] = HepG2, MTT time gradient, 10 ug/ml, 2 d
# [16] = HepG2, MTT time gradient, 10 ug/ml, 3 d
# [17] = HepG2, MTT time gradient, 10 ug/ml, 7 d
# [18] = HepG2, MTT, 1 ug/ml, 3 d, solvent not given
# [19] = HepG2, MTT, 5 ug/ml, 3 d, solvent not given
# [20] = HepG2, MTT, 10 ug/ml, 3 d, solvent not given
# [21] = HepG2, Table 5 repeat MTT, 10 ug/ml, 3 days, DMSO
compound,measurement,setting,value
"CC1=C(/C=C/C(C)=C/C=C/C(C)=C/C(=O)Nc2ccc(OC(F)(F)F)cc2)C(C)(C)CCC1 [Example 6a-01, (4-trifluoromethoxyphenyl)-(all-trans)-3,7-dimethyl-9-(2,6,6-trimethyl-1-cyclohexen-1-yl)-2,4,6,8-nonatetraenoic acid amide]",Apoptosis Rate (%),[1],30.5%
same,G0-G1 (%),[1],40.1%
same,G2-M (%),[1],2.34%
same,S %,[1],27.9%
same,"effects on AFP secretory volume (statistics, in words)",[2],meaningful in statistics
same,AFP,[2],13.6* ug/L
same,G1 %,[3],34.2%
same,G2 %,[3],9.4%
same,S %,[3],56.4%
same,OD Value (x ± s),[4]; 1 d,0.646 ± 0.019
same,Inhibition Rate,[4]; 1 d,0.296
same,OD Value (x ± s),[4]; 2 d,0.909 ± 0.065
same,Inhibition Rate,[4]; 2 d,0.378
same,OD Value (x ± s),[4]; 3 d,0.567 ± 0.057
same,Inhibition Rate,[4]; 3 d,0.389
same,OD Value (x ± s),[4]; 7 d,1.243 ± 0.024
same,Inhibition Rate,[4]; 7 d,0.401
same,CEA,[5],2.9 µg/L
same,OD Value (x ± s),[6]; [11],0.97 ± 0.29
same,OD Value (x ± s),[6]; [12],0.89 ± 0.14
same,OD Value (x ± s),[6]; [13],0.89 ± 0.30
same,OD Value (x ± s),[6]; [14],1.28 ± 0.07
same,Inhibition Rate,[6]; [14],0.06
same,OD Value (x ± s),[6]; [15],1.55 ± 0.11
same,Inhibition Rate,[6]; [15],0.10
same,OD Value (x ± s),[6]; [16],1.24 ± 0.18
same,Inhibition Rate,[6]; [16],0.26
same,OD Value (x ± s),[6]; [17],0.62 ± 0.13
same,Inhibition Rate,[6]; [17],0.50
same,Inhibition Rate,[6]; [18],0.42
same,Inhibition Rate,[6]; [19],0.47
same,Inhibition Rate,[6]; [20],0.47
same,OD Value (x ± s),[6]; [21],1.163 ± 0.102
same,Inhibition Rate,[6]; [21],0.463*
same,γ-GT,[7],58.0 ± 1.5 U/L
same,G1 %,[8],38.24%
same,G2 %,[8],2.70%
same,S %,[8],59.06%
same,Apoptosis Rate (%),[9],11.1%
same,G0-G1 (%),[9],57.4%
same,G2-M (%),[9],5.30%
same,S %,[9],26.7%
"CC1=C(/C=C/C(C)=C/C=C/C(C)=C/C(=O)Nc2ccc(C(F)(F)F)cc2)C(C)(C)CCC1 [Example 3a-01, (4-trifluoromethylphenyl)-(all-trans)-3,7-dimethyl-9-(2,6,6-trimethyl-1-cyclohexen-1-yl)-2,4,6,8-nonatetraenoic acid amide]",Apoptosis Rate (%),[1],17.6%
same,G0-G1 (%),[1],55.6%
same,G2-M (%),[1],2.41%
same,S %,[1],24.9%
same,"effects on AFP secretory volume (statistics, in words)",[2],meaningful in statistics
same,AFP,[2],13.6* ug/L
same,OD Value (x ± s),[4]; 1 d,0.680 ± 0.055
same,Inhibition Rate,[4]; 1 d,0.258
same,OD Value (x ± s),[4]; 2 d,1.042 ± 0.046
same,Inhibition Rate,[4]; 2 d,0.288
same,OD Value (x ± s),[4]; 3 d,0.623 ± 0.006
same,Inhibition Rate,[4]; 3 d,0.328
same,OD Value (x ± s),[4]; 7 d,1.325 ± 0.028
same,Inhibition Rate,[4]; 7 d,0.361
same,CEA,[5],2.9 µg/L
same,OD Value (x ± s),[6]; [11],1.13 ± 0.16
same,OD Value (x ± s),[6]; [12],1.13 ± 0.45
same,OD Value (x ± s),[6]; [13],0.86 ± 0.13
same,OD Value (x ± s),[6]; [14],1.52 ± 0.13
same,Inhibition Rate,[6]; [14],0.12
same,OD Value (x ± s),[6]; [15],0.71 ± 0.02
same,Inhibition Rate,[6]; [15],0.42
same,OD Value (x ± s),[6]; [16],0.77 ± 0.03
same,Inhibition Rate,[6]; [16],0.54
same,OD Value (x ± s),[6]; [17],0.30 ± 0.08
same,Inhibition Rate,[6]; [17],0.77
same,Inhibition Rate,[6]; [18],0.33
same,Inhibition Rate,[6]; [19],0.33
same,Inhibition Rate,[6]; [20],0.49
same,OD Value (x ± s),[6]; [21],0.978 ± 0.072
same,Inhibition Rate,[6]; [21],0.548*
same,γ-GT,[7],52.3 ± 1.5 U/L
same,Apoptosis Rate (%),[9],16.5* %
same,G0-G1 (%),[9],56.3%
same,G2-M (%),[9],4.14%
same,S %,[9],24.8%
"CC1=C(/C=C/C(C)=C/C=C/C(C)=C/C(=O)O)C(C)(C)CCC1 [ATRA, all-trans retinoic acid]",incidence rate of increased leukocyte count,"[10]; during the treatment of APL, reported abroad",about 30%
same,complete remission rate,"[10]; human acute promyelocytic leukaemia, 5-year clinic summary",86%
